From paper PMC11851430, “Workflow for E3 Ligase Ligand Validation for PROTAC Development” (ACS Chemical Biology, 2025)

Columns and labels:
[1] = tested on: kinase protein levels in Jurkat cells; test: TMT-labeled quantitative proteomics; type: cell-based, human; details: for kinase degradation / AURKA degradation in proteomic experiments: Jurkat cells, 1 μM, 6 h; for log2FC (compound/DMSO): Jurkat; for AURKA degradation in proteomic experiments: cutoff log2(fold change) ≥ 0.60
Method: cultured in RPMI (Thermo: 11875093) supplemented as mentioned above. Cells were seeded in 6 well plates (Greiner: 657160) at a cell density of 1·10 6 cells/well and left at 37 °C and 5% […]
50 µl of SDS Lysis Buffer (2% SDS, 50 mM TRIS pH 8.5, 10 mM TCEP, 40 mM CAA) was added to each sample. Cells were transferred into low binding reaction tubes (Eppendorf:
0030108116) and samples were boiled for 15 minutes at 95 °C and sonicated for 2 minutes.
Methanol/Chloroform Precipitation. 200 µl of methanol and 50 µl of chloroform were added to each sample reaction tube and mixed via vortex. 150 µl of milliQ-H2O were added and samples were vortexed further. Samples were centrifuged for 5 minutes at 15000 g and the aqueous layer above the interphase was removed. 150 µl of methanol was added, samples were vortexed and centrifuged for 10 minutes at 15000 g to precipitate the pellet. The aforementioned wash procedure was repeated twice before transferring the pellet to a new low bind reaction tube in which it was allowed to dry for 5 minutes.
Dissolving the Protein Pellet and Protein Quantification. 50 µl of digestion buffer (8 M Urea, 50 mM TRIS pH 8) was added to each sample before vortexing and shaking at 750 rpm at room temperature for 10 minutes to solubilize the pellet. Protein quantification via PierceTM BCA Protein Assay Kit (Thermo: 23225) was carried out according to manufacturer’s protocol.
Protein Digestion. Samples were diluted 1:2 with 50 mM TRIS pH 8.5 to reach a final concentration of 4 M Urea. Lys-C (Promega: VA1170) was added at a 1:100 enzyme/substrate ratio. Samples were agitated at 550 rpm and 37 °C for 3 h. Samples were further diluted with 50 mM TRIS pH 8.5 to a final concentration of 1 M Urea and Trypsin (Promega: V5280) was added at a 1:100 enzyme/substrate ratio. Samples were agitated overnight at 550 rpm and 37 °C. The digestion was stopped the following day via addition of TFA to a final concentration […]
Solid Phase Extraction via C18 Cartridges. Sep-Pak C18 Cartridges (Waters: WAT054955) were used for solid phase extraction of digested peptides. For preconditioning of C18 cartridges, 1 mL of methanol was added to each column followed by 1 mL of solution B (0.1% formic acid, 80% acetonitrile) and 1 mL of solution A (0.1% formic acid, ddH2O) twice. Samples […]
were loaded to their respective columns and once samples had passed, columns were washed twice with solution A to remove unwanted components from the loading step. Elution of samples was carried out via introduction of 40% and 60% acetonitrile steps. Samples were dried and snap frozen in liquid nitrogen.
TMT-Labeling. Desalted peptides were dried and resuspended in TMT-labeling buffer (200 mM EPPS pH 8.2, 20% acetonitrile). 10 μg of peptides per condition were subjected to TMT labeling with 1:2.5 peptide TMT ratio (w/w) for 1 h at room temperature. The labeling reaction was quenched by addition of hydroxylamine to a final concentration of 0.5% and incubation at room temperature for 15 minutes. Successful TMT labeling was verified by mixing equimolar ratios of peptides and subjecting the mix to single shot LC-MS/MS analysis. For high pH reversed phase fractionation on a Dionex analytical HPLC, 50 µg of pooled and purified TMT labelled samples were resuspended in 10 mM ammonium-bicarbonate (ABC), 5% acetonitrile, […]
particle size; Phenomenex) using a multistep gradient from 100% solvent A (5% acetonitrile, 10 mM ABC in water) to 60% solvent B (90% acetonitrile, 10 mM ABC in water) over 70 minutes. Eluting peptides were collected every 45 seconds into a total of 96 fractions, which were cross-concatenated into 24 fractions and dried in a vacuum concentrator and resuspended in 3% acetonitrile with 0.1% TFA for LC-MS analysis.
Mass spectrometry data acquisition. Tryptic peptides were analyzed on an Orbitrap Lumos coupled to an easy nLC 1200 (ThermoFisher Scientific) using a 35 cm long, 75 µm ID fused-

Jurkat cells = test: CellTiterGlo cell viability assay; type: cell-based, human; details: 24 h, mean of triplicates, ^b/^c values estimated; for IC50: Homo sapiens, read-out: IC50±sd/μM (cell viability)
Outline: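 Jurkat cells treated with compound titrations; viability read by CellTiter-Glo 2.0 luminescence after 10 min at room temperature, fitted to a four-parameter curve. Proteomics samples lysed in 2% SDS, 50 mM Tris pH 8.5, TCEP and CAA, sonicated, then analysed by label-free quantitation.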

VHL = VHL (Homo sapiens, UniProt P40337); test: cell-based; parameters: full-length, NanoLuc fusion (Promega N2741); species or system HEK293T; NanoBRET VHL tracer displacement in permeabilized cells, NanoLuc-VHL fusion; details: permeabilized cells; read-out: VHL permeabilized (IC50±sd)/µM
VHL, sequence (P40337 whole entry, the tested form may be a part): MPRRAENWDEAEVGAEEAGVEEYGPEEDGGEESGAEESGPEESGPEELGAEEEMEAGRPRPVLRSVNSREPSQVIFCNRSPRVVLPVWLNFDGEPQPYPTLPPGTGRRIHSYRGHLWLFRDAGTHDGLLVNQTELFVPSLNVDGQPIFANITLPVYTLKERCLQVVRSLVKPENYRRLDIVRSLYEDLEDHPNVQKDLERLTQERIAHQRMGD

full-length AAK1 = full-length AAK1 (Homo sapiens, UniProt Q2M2I8); test: NanoBRET target engagement assay, intact and permeabilized cells
full-length AAK1, sequence (Q2M2I8 whole entry): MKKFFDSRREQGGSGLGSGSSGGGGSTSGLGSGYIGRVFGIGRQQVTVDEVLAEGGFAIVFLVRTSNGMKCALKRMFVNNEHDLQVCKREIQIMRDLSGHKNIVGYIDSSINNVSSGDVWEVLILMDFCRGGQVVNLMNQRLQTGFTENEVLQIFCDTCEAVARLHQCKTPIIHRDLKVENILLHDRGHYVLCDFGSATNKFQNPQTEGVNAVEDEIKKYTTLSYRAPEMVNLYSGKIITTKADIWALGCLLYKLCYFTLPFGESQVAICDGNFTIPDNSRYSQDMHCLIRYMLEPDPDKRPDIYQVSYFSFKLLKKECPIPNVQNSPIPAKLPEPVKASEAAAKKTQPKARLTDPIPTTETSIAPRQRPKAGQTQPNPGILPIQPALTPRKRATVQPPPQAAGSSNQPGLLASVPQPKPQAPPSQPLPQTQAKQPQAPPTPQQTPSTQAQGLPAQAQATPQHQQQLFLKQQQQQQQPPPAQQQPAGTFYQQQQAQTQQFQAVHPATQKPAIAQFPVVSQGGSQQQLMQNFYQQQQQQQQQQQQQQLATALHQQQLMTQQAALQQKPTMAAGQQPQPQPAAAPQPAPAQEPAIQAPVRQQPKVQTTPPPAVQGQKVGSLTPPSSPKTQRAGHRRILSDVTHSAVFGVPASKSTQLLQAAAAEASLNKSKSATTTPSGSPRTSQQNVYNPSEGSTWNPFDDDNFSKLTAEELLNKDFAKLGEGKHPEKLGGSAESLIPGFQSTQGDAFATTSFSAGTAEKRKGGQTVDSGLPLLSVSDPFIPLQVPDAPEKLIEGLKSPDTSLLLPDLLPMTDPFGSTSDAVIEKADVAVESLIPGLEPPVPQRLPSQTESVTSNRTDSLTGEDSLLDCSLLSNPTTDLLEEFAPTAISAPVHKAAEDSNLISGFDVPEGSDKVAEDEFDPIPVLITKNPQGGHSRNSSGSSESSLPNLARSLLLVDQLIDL

AURKA = target: T1, AURKA (Homo sapiens, UniProt O14965); test: as above; details: mean of duplicates, ^a values estimated by extrapolation
T1 sequence (O14965 1-403): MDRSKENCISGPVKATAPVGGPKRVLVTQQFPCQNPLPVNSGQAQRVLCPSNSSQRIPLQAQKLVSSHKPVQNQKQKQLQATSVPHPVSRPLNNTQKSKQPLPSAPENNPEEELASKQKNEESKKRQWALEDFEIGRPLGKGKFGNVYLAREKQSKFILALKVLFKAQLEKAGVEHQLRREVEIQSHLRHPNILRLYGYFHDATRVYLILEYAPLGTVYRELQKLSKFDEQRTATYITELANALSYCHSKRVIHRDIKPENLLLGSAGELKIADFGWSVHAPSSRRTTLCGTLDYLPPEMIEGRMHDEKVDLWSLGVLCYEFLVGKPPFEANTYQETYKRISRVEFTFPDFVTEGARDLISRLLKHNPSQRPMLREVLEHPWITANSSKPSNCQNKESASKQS
Method: Compounds were pipetted at various concentrations using an Echo acoustic dispenser (Labcyte), immediately followed by Tracer K10 (Promega, Tracer DB ID: T000008) for AAK1 and Aurora A and VHL Tracer (Promega, Tracer DB ID: T000019) for VHL, at an optimum KD concentration chosen from TracerDB ( tracerdb.org), respectively.
To measure the BRET signal, the NanoBRET® NanoGlo Substrate (Promega:
N1573) was added as per the manufacturer’s protocol, and filtered luminescence was measured on a PHERAstar plate reader (BMG Labtech) equipped with a luminescence filter pair (450 nm BP filter (donor) and 610 nm LP filter (acceptor)). For NanoBRET® measurement in permeabilized cells, 25 nL of digitonin (0.05 μg/μL) was pipetted into each well using an
After incubation, the BRET signals were measured by a PHERAstar plate reader (BMG Labtech) following the same procedure as intact NanoBRET® measurement. Competitive displacement data were then normalized to controls and were plotted using GraphPad Prism 9 software employing a normalized 3-parameter curve fit with the following equation:

[2] = protein TRBV12-3;TRBV12-4, 1 µM, set1.2
[3] = AAK1 intact (IC50±sd)/μM, NanoBRET, intact cells, mean of duplicates, ^a values estimated by extrapolation
[4] = AAK1 permeabilized (IC50±sd)/μM, NanoBRET, permeabilized cells, mean of duplicates
[5] = AURKA intact (IC50±sd)/μM, intact cells
[6] = AURKA permeabilized (IC50±sd)/μM, permeabilized cells

| Compound | kinase degradation [1] | log2FC (compound/DMSO) ([1]; protein NUDT4, 1µM, set6) | log2FC (compound/DMSO) ([1]; protein TRAV8-2, 1µM, set6) | log2FC (compound/DMSO) ([1]; protein UQCRHL;UQCRH, 1µM, set6) | log2FC (compound/DMSO) ([1]; protein hCG_2014768;TMA7, 1µM, set6) | IC50 (Jurkat cells) [µM] | AURKA degradation in proteomic experiments [1] | log2FC (compound/DMSO) ([1]; protein NUDT4, 1 µM, set1.2) | log2FC (compound/DMSO) ([1]; protein PIGBOS1, 1 µM, set1.2) | log2FC (compound/DMSO) ([1]; protein TRAV8-2, 1 µM, set1.2) | log2FC (compound/DMSO) [1, 2] | IC50 (VHL) [µM] | IC50 (full-length AAK1; [3]) [µM] | IC50 (full-length AAK1; [4]) [µM] | IC50 (AURKA; [5]) [µM] | IC50 (AURKA; [6]) [µM] | AAK1 intact (IC50±sd)/μM (full-length AAK1; NanoBRET, intact cells, mean of duplicates, ^a values estimated by extrapolation) | cell permeability / cell penetration (full-length AAK1; as shown by the NanoBRET data (intact vs permeabilized cells)) | AURKA intact (IC50±sd)/μM (AURKA; intact cells) | IC50±sd/μM (cell viability) (Jurkat cells) |
| --- | --- | --- | --- | --- | --- | --- | --- | --- | --- | --- | --- | --- | --- | --- | --- | --- | --- | --- | --- | --- |
| Cc1ncsc1-c1ccc(CNC(=O)[C@@H]2C[C@H](O)CN2C(=O)[C@@H](NC(=O)CCOCCOCCOCCN2CCN(c3cc(Nc4cc(C5CC5)[nH]n4)nc(Nc4ccc(CC#N)cc4)n3)CC2)C(C)(C)C)cc1 [4-a^neg] | inactive | 0.1377 | -0.04256 | 0.1443 | -0.0883 |  |  |  |  |  |  |  |  |  |  |  |  |  |  |  |
| Cc1ncsc1-c1ccc(CNC(=O)[C@@H]2C[C@@H](O)CN2C(=O)[C@@H](NC(=O)CCOCCOCCOCCOCCN2CCN(c3ccc(Nc4ncc(Cl)c(Nc5ccccc5C(N)=O)n4)cc3)CC2)C(C)(C)C)cc1 [6-b] | more kinases were degraded |  |  |  |  | 3.1 ± 0.8 | degradation levels close to the set cutoff | 0.1389 | -0.2513 | -0.01025 | 0.04941 | 1.41 ± 0.083 | 0.13 ± 0.003 | 0.055 ± 0.002 | 0.416 ± 0.031 | 0.254 ± 0.08 |  |  |  |  |
| Cc1ncsc1-c1ccc(CNC(=O)[C@@H]2C[C@@H](O)CN2C(=O)[C@@H](NC(=O)CCOCCOCCNC(=O)c2cc(Nc3cc(C4CC4)[nH]n3)nc(Nc3ccc(CC#N)cc3)n2)C(C)(C)C)cc1 [5-a] |  |  |  |  |  |  |  | -0.04256 | -0.1976 | 0.04739 | 0.03953 | 1.22 ± 0.665 | ~8.76 | 0.162 ± 0.002 |  | ~16.9 | single-digit micromolar | poor cell permeability | outside the assay window |  |
| Cc1ncsc1-c1ccc(CNC(=O)[C@@H]2C[C@@H](O)CN2C(=O)[C@@H](NC(=O)CCOCCOCCOCCN2CCN(c3cc(Nc4cc(C5CC5)[nH]n4)nc(Nc4ccc(CC#N)cc4)n3)CC2)C(C)(C)C)cc1 [4-a] | more kinases were degraded |  |  |  |  |  | degradation levels close to the set cutoff | -0.1286 | -0.1403 | 0.1127 | 0.03022 | 1.13 ± 0.132 | 0.21 ± 0.044 | 0.057 ± 0.004 | 3.68 ± 0.085 | 1.34 ± 0.271 |  |  |  |  |
| CCOC(=O)c1cc(Nc2cc(C3CC3)[nH]n2)nc(Nc2ccc(CC#N)cc2)n1 [compound 5] |  |  |  |  |  | 3.1 ± 1 |  |  |  |  |  |  | 0.012 ± 0.002 | 0.015 ± 0.002 | 0.577 ± 0.391 | 0.507 ± 0.079 |  |  |  | single-digit micromolar |
